Source: ChEMBL document CHEMBL5512645, “A novel antimicrobial peptide with broad-spectrum and exceptional stability derived from the natural peptide Brevicidine” (Eur J Med Chem, 2024)
In brackets after ≈: the same amount, converted by molar mass. Activity calls are given as the source filed them. The calls are words filed in the database; no cut-off is given here. Bridge positions count the residues as written; N and C are the ends. Square brackets hold non-standard residues; d marks the D form. Peptide text beside a SMILES is read from it. * marks the point of attachment. ξ: configuration not given here. Hexanoyl(4ξ-Me) = CCC(C)CCC(=O)*; dOrn = NCCC[C@@H](N)C(=O)O; Orn = NCCC[C@H](N)C(=O)O

Experiments:
[1] = system: Escherichia coli; test: Antibacterial activity against Escherichia coli ATCC 25922 incubated for 18 to 24 hrs by broth microdilution method; assay type: functional; conditions: time 18-24 hrs
[2] = system: Klebsiella pneumoniae; test: Antibacterial activity against Klebsiella pneumoniae ATCC 700603 incubated for 18 to 24 hrs by broth microdilution method; assay type: functional; conditions: time 18-24 hrs
[3] = system: Pseudomonas aeruginosa; test: Antibacterial activity against Pseudomonas aeruginosa ATCC 27853 incubated for 18 to 24 hrs by broth microdilution method; assay type: functional; conditions: time 18-24 hrs
[4] = system: Acinetobacter baumannii; test: Antibacterial activity against Acinetobacter baumannii ATCC 19606 incubated for 18 to 24 hrs by broth microdilution method; assay type: functional; conditions: time 18-24 hrs
[5] = system: Staphylococcus aureus; test: Antibacterial activity against Staphylococcus aureus ATCC 25923 incubated for 18 to 24 hrs by broth microdilution method; assay type: functional; conditions: time 18-24 hrs
[6] = system: Bacillus subtilis; test: Antibacterial activity against Bacillus subtilis ATCC 23857 incubated for 18 to 24 hrs by broth microdilution method; assay type: functional; conditions: time 18-24 hrs
[7] = system: Staphylococcus epidermidis; test: Antibacterial activity against Staphylococcus epidermidis ATCC 12228 incubated for 18 to 24 hrs by broth microdilution method; assay type: functional; conditions: time 18-24 hrs
[8] = system: Enterococcus faecalis; test: Antibacterial activity against Enterococcus faecalis ATCC 29212 incubated for 18 to 24 hrs by broth microdilution method; assay type: functional; conditions: time 18-24 hrs
[9] = system: Erythrocyte; test: Hemolytic activity in mouse red blood cell assessed as hemolysis incubated for 1 hr; assay type: toxicity, cell-based
[10] = Cytotoxicity against human HK-2 cells measured after 24 hrs MTT assay; assay type: toxicity, cell-based
[11] = Retention time of the compound in mouse serum by RP-HPLC analysis; assay type: ADME, cell-free
[12] = Half life in mouse serum by RP-HPLC analysis; assay type: ADME, cell-free
[13] = system: Pseudomonas aeruginosa; test: Antibacterial activity against Pseudomonas aeruginosa ATCC 27853 pretreated with 2.5% mouse serum followed by compound addition and measured after 1 hr by broth microdilution method (reference value: 2 microM); assay type: functional
[14] = system: Pseudomonas aeruginosa; test: Antibacterial activity against Pseudomonas aeruginosa ATCC 27853 pretreated with 5% mouse serum followed by compound addition and measured after 1 hr by broth microdilution method (reference value: 2 microM); assay type: functional
[15] = system: Pseudomonas aeruginosa; test: Antibacterial activity against Pseudomonas aeruginosa ATCC 27853 pretreated with 10% mouse serum followed by compound addition and measured after 1 hr by broth microdilution method (reference value: 2 microM); assay type: functional
[16] = system: Pseudomonas aeruginosa; test: Antibacterial activity against Pseudomonas aeruginosa ATCC 27853 pretreated with 20% mouse serum followed by compound addition and measured after 1 hr by broth microdilution method (reference value: 2 microM); assay type: functional
[17] = system: Pseudomonas aeruginosa; test: Antibacterial activity against Pseudomonas aeruginosa ATCC 27853 pretreated with 2.5% mouse serum followed by compound addition and measured after 6 hrs by broth microdilution method (reference value: 2 microM); assay type: functional
[18] = system: Pseudomonas aeruginosa; test: Antibacterial activity against Pseudomonas aeruginosa ATCC 27853 pretreated with 5% mouse serum followed by compound addition and measured after 6 hrs by broth microdilution method (reference value: 2 microM); assay type: functional
[19] = system: Pseudomonas aeruginosa; test: Antibacterial activity against Pseudomonas aeruginosa ATCC 27853 pretreated with 10% mouse serum followed by compound addition and measured after 6 hrs by broth microdilution method (reference value: 2 microM); assay type: functional
[20] = system: Pseudomonas aeruginosa; test: Antibacterial activity against Pseudomonas aeruginosa ATCC 27853 pretreated with 20% mouse serum followed by compound addition and measured after 6 hrs by broth microdilution method (reference value: 2 microM); assay type: functional
[21] = system: Pseudomonas aeruginosa; test: Antibacterial activity against Pseudomonas aeruginosa ATCC 27853 pretreated with Na-cl followed by compound addition and measured after 2 hrs by broth microdilution method (reference value: 2 microM); assay type: functional
[22] = system: Pseudomonas aeruginosa; test: Antibacterial activity against Pseudomonas aeruginosa ATCC 27853 pretreated with KCl followed by compound addition and measured after 2 hrs by broth microdilution method (reference value: 2 microM); assay type: functional
[23] = system: Pseudomonas aeruginosa; test: Antibacterial activity against Pseudomonas aeruginosa ATCC 27853 pretreated with Mgcl2 followed by compound addition and measured after 2 hrs by broth microdilution method (reference value: 2 microM); assay type: functional
[24] = system: Pseudomonas aeruginosa; test: Antibacterial activity against Pseudomonas aeruginosa ATCC 27853 pretreated with FeCl3 followed by compound addition and measured after 2 hrs by broth microdilution method (reference value: 2 microM); assay type: functional
[25] = system: Pseudomonas aeruginosa; test: Antibacterial activity against Pseudomonas aeruginosa ATCC 27853 pretreated with Zncl2 followed by compound addition and measured after 2 hrs by broth microdilution method (reference value: 2 microM); assay type: functional
[26] = system: Pseudomonas aeruginosa; test: Antibacterial activity against Pseudomonas aeruginosa ATCC 27853 assessed as reduction in survival bacterial growth in presence of chymotrypsin measured after 8 hrs by absorbance based analysis; assay type: functional, organism-based
[27] = system: Pseudomonas aeruginosa; test: Antibacterial activity against Pseudomonas aeruginosa ATCC 27853 assessed as reduction in survival bacterial growth in presence of trypsin measured after 8 hrs by absorbance based analysis; assay type: functional, organism-based
[28] = system: Pseudomonas aeruginosa; test: Antibiofilm activity against Pseudomonas aeruginosa ATCC 27853 at 1/2 to 4 times MIC measured after 24 hrs by crystal violet staining based analysis; assay type: functional, organism-based
[29] = system: Staphylococcus aureus; test: Antibiofilm activity against Staphylococcus aureus ATCC 25923 at 1/2 to 4 times MIC measured after 24 hrs by crystal violet staining based analysis; assay type: functional, organism-based
[30] = system: Pseudomonas aeruginosa; test: Antibacterial activity against Pseudomonas aeruginosa ATCC 27853 at sub-MIC measured after 20 days; assay type: functional, organism-based; conditions: time 20.0 day
[31] = system: Pseudomonas aeruginosa; test: Antibacterial activity against Pseudomonas aeruginosa ATCC 27853 at sub-MIC measured after 20 days in presence of rifampicin; assay type: functional, organism-based; conditions: time 20.0 day
[32] = system: Pseudomonas aeruginosa; test: Antibacterial activity against Pseudomonas aeruginosa ATCC 27853 at sub-MIC measured after 20 days in presence of gentamicin; assay type: functional, organism-based; conditions: time 20.0 day
[33] = system: Staphylococcus aureus; test: Antibacterial activity against Staphylococcus aureus ATCC 25923 at sub-MIC measured after 20 days in presence of rifampicin; assay type: functional, organism-based; conditions: time 20.0 day
[34] = system: Staphylococcus aureus; test: Antibacterial activity against Staphylococcus aureus ATCC 25923 at sub-MIC measured after 20 days in presence of gentamicin; assay type: functional, organism-based; conditions: time 20.0 day
[35] = system: Pseudomonas aeruginosa; test: Antimicrobial activity against Pseudomonas aeruginosa ATCC 27853 assessed as reduction in microbial growth at 2 times MIC measured for 18 hrs in presence of 256 microg/ml LPS; assay type: functional, organism-based
[36] = system: Staphylococcus aureus; test: In vivo antibacterial activity against Staphylococcus aureus ATCC 25923 infected in BALB/c mouse model assessed as reduction in bacterial count in spleen at 10 mg/kg, ip preadministered with compound for 1 hr followed by bacterial infection and measured after 6 hrs […]; assay type: functional, organism-based; conditions: time 7.0 hrs
[37] = system: Staphylococcus aureus; test: In vivo antibacterial activity against Staphylococcus aureus ATCC 25923 infected in BALB/c mouse model assessed as amelioration of pathological changes in lung at 5 to 10 mg/kg, ip measured after 7 hrs by H and E staining based analysis; assay type: functional, organism-based; conditions: dose 5-10 mg/kg
[38] = system: Pseudomonas aeruginosa; test: Antibacterial activity against Pseudomonas aeruginosa ATCC 27853 assessed as fold increase in MIC pretreated with MgCl2 followed by compound addition and measured after 2 hrs by broth microdilution method; assay type: functional
[39] = system: Pseudomonas aeruginosa; test: Induction of morphological changes in Pseudomonas aeruginosa ATCC 27853 assessed as pore formation on bacterial surface at 2 times MIC measured after 0.5 hrs by SEM based analysis; assay type: functional, organism-based
[40] = system: Pseudomonas aeruginosa; test: Induction of morphological changes in Pseudomonas aeruginosa ATCC 27853 assessed as membrane rupture at 2 times MIC measured after 2 hrs by SEM based analysis; assay type: functional, organism-based

Compound	MIC [1] [µM]	MIC [2] [µM]	MIC [3] [µM]	MIC [4] [µM]	MIC [5] [µM]	MIC [6] [µM]	MIC [7] [µM]	MIC [8] [µM]	MIC [13] [µM]	MIC [14] [µM]	MIC [15] [µM]	MIC [16] [µM]	MIC [17] [µM]	MIC [18] [µM]	MIC [19] [µM]	MIC [20] [µM]	MIC [21] [µM]	MIC [22] [µM]	MIC [23] [µM]	MIC [24] [µM]	other results
CCCCCCCCCC(=O)N[C@H](CCCN)C(=O)N[C@H](Cc1ccc(O)cc1)C(=O)N[C@H](Cc1c[nH]c2ccccc12)C(=O)N[C@H](CCCN)C(=O)N[C@@H](CCCN)C(=O)NCC(=O)N[C@H](CCCN)C(=O)N[C@@H](Cc1c[nH]c2ccccc12)C(=O)N[C@H](C(=O)N[C@H](C(=O)NCC(=O)N[C@@H](CO)C(=O)O)[C@@H](C)CC)[C@@H](C)O	4 (≈ 6.32 µg/mL)	4 (≈ 6.32 µg/mL)	2 (≈ 3.16 µg/mL)	4 (≈ 6.32 µg/mL)	8 (≈ 12.6 µg/mL)	2 (≈ 3.16 µg/mL)	4 (≈ 6.32 µg/mL)	16 (≈ 25.3 µg/mL)	2 (≈ 3.16 µg/mL)	2 (≈ 3.16 µg/mL)	2 (≈ 3.16 µg/mL)	4 (≈ 6.32 µg/mL)	2 (≈ 3.16 µg/mL)	2 (≈ 3.16 µg/mL)	4 (≈ 6.32 µg/mL)	8 (≈ 12.6 µg/mL)	2 (≈ 3.16 µg/mL)	2 (≈ 3.16 µg/mL)	2 (≈ 3.16 µg/mL)	< 1	MHC [9]: 128 µM; IC50 at 24 h [10]: 21.1 µM; Retention_time [11]: 15.312 min; half-life [12]: 41 h; MIC [25]: 2 µM (≈ 3.16 µg/mL); Activity [26]: Active; Activity [27]: Active; Activity [28]: Active; Activity [29]: Active; Activity [30]: Active; Activity [31]: Active; Activity [32]: Active; Activity [33]: Active; Activity [34]: Active; Activity [35]: inactive; Activity [36]: Active; Activity [37]: Active; fold change (FC) [38]: 8
CCC(C)CCC(=O)N[C@H](CC(N)=O)C(=O)N[C@H](Cc1ccc(O)cc1)C(=O)N[C@H](Cc1c[nH]c2ccccc12)C(=O)N[C@H](CCCN)C(=O)N[C@@H](CCCN)C(=O)NCC(=O)N[C@H](CCCN)C(=O)N[C@@H](Cc1c[nH]c2ccccc12)C(=O)N[C@@H]1C(=O)N[C@@H]([C@@H](C)CC)C(=O)NCC(=O)N[C@@H](CO)C(=O)O[C@@H]1C (some centres not stated) ({Hexanoyl(4ξ-Me)}-[dN][dY][dW][dOrn][Orn]G[dOrn]WTIGS; ester 9-C)	2 (≈ 3.04 µg/mL)	2 (≈ 3.04 µg/mL)	2 (≈ 3.04 µg/mL)	8 (≈ 12.2 µg/mL)	64 (≈ 97.3 µg/mL)	8 (≈ 12.2 µg/mL)	32 (≈ 48.6 µg/mL)	64 (≈ 97.3 µg/mL)	2 (≈ 3.04 µg/mL)	2 (≈ 3.04 µg/mL)	4 (≈ 6.08 µg/mL)	4 (≈ 6.08 µg/mL)	8 (≈ 12.2 µg/mL)	8 (≈ 12.2 µg/mL)	8 (≈ 12.2 µg/mL)	16 (≈ 24.3 µg/mL)	4 (≈ 6.08 µg/mL)	8 (≈ 12.2 µg/mL)	8 (≈ 12.2 µg/mL)	4 (≈ 6.08 µg/mL)	MHC [9]: 128 µM; IC50 at 24 h [10]: 36.5 µM; Retention_time [11]: 14.82 min; half-life [12]: 4.47 h; MIC [25]: 4 µM (≈ 6.08 µg/mL); Activity [26]: Active; Activity [27]: Active; Activity [28]: Active; Activity [29]: Active; Activity [30]: Active; Activity [31]: Active; Activity [32]: Active; Activity [33]: Active; Activity [34]: Active; Activity [39]: Active; Activity [40]: Active; fold change (FC) [38]: 4
POLYMYXIN B	2	4	2	1	16	8	32	128	2	2	2	2	2	2	4	4	< 1	< 1	2	< 1	MIC [25]: < 1 µM; Activity [28]: Active; Activity [29]: Active; Activity [31]: Active; Activity [32]: Active; Activity [33]: Active; Activity [34]: Active; Activity [35]: inactive; Activity [39]: Active; Activity [40]: Active; Activity [36]: Active; Activity [37]: Active
